What was measured:
[1] = test system: pUAS-2-Fluc expression in HEK293T cells with cognate or non-cognate GAL4/VPR protein pairs; test: Orthogonality analysis, Firefly luciferase (Fluc) luminescence; assay type: cell-based, human; settings: seven different protein pairs, 2 days, FIGS. 2A and 14
Protocol: Luciferase luminescence intensity measurement. Before transfection, HEK293T cells were seeded in clear bottom 96 well assay plates (Corning no. 3610) with 100 μL DMEM with 10% FBS and 1× penicillin-streptomycin at 37° C. with 5% CO2. When cells reached 50% confluency, 1.5 μL PEI Max (1 mg/mL, pH=7.1) and 100 μL DMEM were mixed with 60 ng of each plasmid (GAL4 and VPR fused target protein or E3 ubiquitin ligase, pUAS-2-Fluc) for 30 min at room temperature. Mixture was transferred into cells gently. 12 h after transfection, medium was changed, and the inductive small molecules were supplied. 2-days post induction, 120 μL of medium was aspirated from each well containing 200 μL of medium, leaving 80 μL of medium per well, then treated with 40 μL of lysis buffer (500 mM DTT (Sigma no. D0632), 10 mM coenzyme A (RPI no. C95275), 100 mM ATP (Thermo Fisher Scientific no. R1441), 80 mg/mL D-luciferin (GoldBio no. LUCNA-100), Triton lysis buffer (0.1082 M Tris-HCl, 0.0419 M Tris-Base, 75 mM NaCl, 3 mM MgCl2)). Plate was shaken with 20 seconds in “Orbital” mode with frequency of 432 rpm and Amplitude of 1 mm to lysis the cells. Recording the luminescence by plate reader Infinite M200 (TECAN) with 1000 ms integration time using Megellan v1.7 (TECAN). Mean of luciferase luminescence relative light units (RLU) was calculated by the average of three biological replications. Normalized RLU were calculated by dividing RLU of the tested group with mean of RLU of DMSO treated control group for normalization: […]

[2] = test system: EYFP and BFP expression in HEK293T cells; test: Dual PROTAC-based inducible gene cassettes (EYFP and BFP), microscopy; assay type: cell-based, human; settings: MZ1 (100 nM) and dTAG-13 (100 nM) PROTAC-CID systems, FIG. 16A
Protocol: Transfection and microscopy. HEK293T cells (American Type Culture Collection, no. CRL-3216) were cultured with high-glucose Dulbecco's modified Eagle's medium (DMEM) (Thermo Fisher Scientific no. 10569044) with 10% fetal bovine serum (FBS) (Thermo Fisher Scientific no. 10437028) and 1×penicillin-streptomycin (Thermo Fisher Scientific no. 15140122) at 37° C. with 5% CO2. Except for the data in FIGS. 3C, 3E, and 3H, cells were plated into 96 well plate (Corning no. 3598) and transfected by Polyethyleneimine Max (PEI Max) (Polysciences no. 24765-1). 1.5 μL PEI Max (1 mg/mL, pH=7.1) and 100 μl DMEM were mixed with plasmids to be slowly dropped into the cell medium after 30 mins of incubation. Medium was changed 12 hours post-transfection. The inductive small molecules, including Rapamycin (STEM CELL technologies no. 73362), dTAG-13 (TOCRIS no. 6605/5), dTAG^V-1 (TOCRIS no. 6744-5), dBRD9 (TOCRIS no. 6606/5), dTRIM24 (TOCRIS no. 6607/5), MZ1 (TOCRIS no. 6154/5), AT1 (TOCRIS no. 6356/5), TL13-12 (TOCRIS no. 6744/5), TL13-112 (TOCRIS no. 6745/5), dTAG-7 (TOCRIS no. 69125), ZXH3-26 (TOCRIS no. 6713/5) and ABA (GoldBio no. A-050-100), dissolved in Dimethyl sulfoxide (DMSO) (Sigma, no. D8418) were added. For the microscopy observation, the images were taken by Microscopy EVOS (Life Technologies) and processed by ImageJ (Schneider et al., 2012). If not otherwise noted, 60 ng of each plasmid were used for each sample.
The inventors next tested the feasibility of dual PROTAC-based inducible gene cassettes (FIG. 15). In the first cassette, GAL4 was fused with FKBP12^F36V, and VHL was ligated with VPR to drive EYFP expression in response to dTAG^V-1. In the second cassette, TetR was fused with BRD9BD, and CRBN was connected with VPR to drive blue fluorescence protein (BFP) expression in the presence of dBRD9. […] As biological computation relies on the protein or DNA to execute Boolean logic gate operation in living organisms for cell discrimination and disease diagnosis (3, 11, 42), the inventors next explored the possibility of PROTAC-CID enabled logic gate biological computation. By placing EYFP under control of the TRE (Tetracycline response element) and pUAS-1 promoter, the inventors observed strong EYFP expression by using one or two PROTACs, achieving clear logic OR gate responses (FIGS. 2C and 16B). To develop a more sophisticated logic AND gate, the inventors took advantage of two orthogonal site-specific DNA recombinases (Cre and Dre) for biological computation (43). […] In this gene circuit, only in the presence of both dTAG-13 and dBRD9 inducers, Dre and Cre can be expressed to remove their respective “STOP” signals, resulting in the eventual GFP expression as a clear logic AND readout (FIGS. 2D and 16C).

Row | SMILES | orthogonality: Fluc activation with cognate vs non-cognate protein partners [1] | gene activation from dual inducible cassettes [2]
1 | CC[C@H](C(=O)N1CCCC[C@H]1C(=O)O[C@H](CCc1ccc(OC)c(OC)c1)c1ccccc1OCC(=O)NCCCCCCOc1cccc2c1C(=O)N(C1CCC(=O)NC1=O)C2=O)c1cc(OC)c(OC)c(OC)c1 (stereo partly shown) [dTAG-13] | only activated Fluc expression in the cells transfected with plasmids containing GAL4-FKBP12^F36V (SEQ ID NO: 1) and CRBN-VPR (SEQ ID NO: 2) coding regions | single gene activation with one PROTAC small molecule and dual-gene activation using both PROTACs
2 | Cc1ncsc1-c1ccc(CNC(=O)[C@@H]2C[C@@H](O)CN2C(=O)[C@@H](NC(=O)COCCOCCOCCNC(=O)C[C@@H]2N=C(c3ccc(Cl)cc3)c3c(sc(C)c3C)-n3c(C)nnc32)C(C)(C)C)cc1 [MZ1] | interact with the same protein pairs | single gene activation with one PROTAC small molecule and dual-gene activation using both PROTACs

— patent US20250382631A1, “PROTAC-CID SYSTEMS FOR USE IN MULTIPLEX GENE REGULATION” (William Marsh Rice University, priority 2022, published 2025)
